# Results taken from patent publication US20250026748A1, “N-(5-SUBSTITUTED-[(1,3,4-THIADIAZOLYL) OR (THIAZOLYL)])(SUBSTITUTED)CARBOXAMIDE COMPOUNDS AND USE THEREOF FOR INHIBITING HUMAN POLYMERASE THETA” (Repare Therapeutics Inc., priority 2021, published 2025).
# Target: PolQ ATPase enzyme (1-894) (Homo sapiens (Human), UniProt O75417)
# Experiment: Polθ ATPase enzymatic assay (0.5 nM enzyme concentration), ADP-Glo
# Format: biochemical
# Conditions: average IC50; 0.5 nM PolQ ATPase enzyme (1-894)
# Experimental: PolQ ATPase enzyme (1-894) at 0.5 nM is incubated with a 10-point concentration response of inhibitors for 15 min at rt in the following buffer: 50 mM Tris Cl pH 7.5, 10% glycerol, 5 mM DTT, 10 mM MgCl2, 0.1 mg/ml BSA. Following pre-incubation with inhibitors, DNA (Fork C) at 20 nM and ATP at 100 μM are added to start the reaction. Enzymatic reaction proceeds at rt for 180 min ATP consumption is measured using the ADP-Glo assay from Promega. Luminescence is read on the Envision and IC50 are determined using the variable slope 4-parameters equation.
# Oligos are annealed by heating at 9500 for 5 min in the following buffer (10 mM Tris-HCl pH7.5, 50 mM NaCl, 1 mM EDTA) and cooled to rt. […]
# Sequence of PolQ ATPase enzyme (1-894) (O75417 1-894): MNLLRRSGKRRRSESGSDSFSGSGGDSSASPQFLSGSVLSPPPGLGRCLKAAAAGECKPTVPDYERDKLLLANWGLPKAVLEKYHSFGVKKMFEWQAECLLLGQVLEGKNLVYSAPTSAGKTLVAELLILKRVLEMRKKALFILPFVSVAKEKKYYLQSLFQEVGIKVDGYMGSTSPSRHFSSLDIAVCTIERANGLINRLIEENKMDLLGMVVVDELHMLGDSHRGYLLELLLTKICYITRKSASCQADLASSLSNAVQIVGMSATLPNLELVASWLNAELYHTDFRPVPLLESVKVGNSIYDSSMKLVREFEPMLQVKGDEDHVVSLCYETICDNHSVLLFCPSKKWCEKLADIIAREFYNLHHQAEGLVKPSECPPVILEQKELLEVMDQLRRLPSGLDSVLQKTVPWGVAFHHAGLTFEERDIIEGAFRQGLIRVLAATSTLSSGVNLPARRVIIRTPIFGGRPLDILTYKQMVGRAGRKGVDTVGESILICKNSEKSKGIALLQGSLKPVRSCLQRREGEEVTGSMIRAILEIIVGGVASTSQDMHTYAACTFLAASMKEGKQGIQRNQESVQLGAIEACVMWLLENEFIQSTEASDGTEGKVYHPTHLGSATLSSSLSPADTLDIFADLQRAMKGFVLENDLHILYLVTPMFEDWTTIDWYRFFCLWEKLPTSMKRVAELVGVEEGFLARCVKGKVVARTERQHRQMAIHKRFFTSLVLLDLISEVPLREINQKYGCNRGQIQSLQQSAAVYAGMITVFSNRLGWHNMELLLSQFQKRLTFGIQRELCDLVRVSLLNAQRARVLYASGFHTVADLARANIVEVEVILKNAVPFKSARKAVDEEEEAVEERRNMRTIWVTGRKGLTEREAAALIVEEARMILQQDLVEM
row,IC50 [nM],Compound
1,< 0.25,COc1cnc(C(F)F)cc1-c1cc(C#CC2(C)CCCO2)ncc1C(=O)Nc1nnc(C#CC2CC2)s1 (stereo not drawn) [Compound 151]
2,4.3,COc1cnc(C(F)F)cc1-c1cc(N2CCCC2=O)ncc1C(=O)Nc1nnc(C#CC2CC2)s1 [Compound 285]
3,3.8,COc1cnc(Cl)cc1-c1cn(Cc2nccs2)c(=O)cc1C(=O)Nc1nnc(C#CC2CC2)s1 [Compound 333]
4,0.71,CNC(=O)Cc1ccc(C(=O)Nc2ncc(C#CC3CC3)s2)c(-c2cc(C(F)F)ncc2OC)c1 [Compound 204]
5,0.39,COc1cnc(C(F)F)cc1-c1cc(N2CC3(CCC2=O)CC3)ncc1C(=O)Nc1nnc(C#CC2CC2)s1 [Compound 426]
6,< 0.25,COc1cnc(C(F)F)cc1-c1cc(-c2nccn2C)ncc1C(=O)Nc1nnc(C#CC2CC2)s1 [Compound 404]
7,> 100,COc1cnc(C(F)F)cc1-c1cc(N2CCOC[C@@H]2C)ncc1C(=O)Nc1nnc(C#CC2CC2)s1 [Compound 377]
8,0.31,COc1cnn(-c2cc(-c3cc(C(F)F)ncc3OC)c(C(=O)Nc3nnc(C#CC4CC4)s3)cn2)c(=O)c1 [Compound 420]
9,1.2,COc1cnc(C(F)F)cc1-c1cc(OC2CCN(C)C2=O)ncc1C(=O)Nc1nnc(C#CC2CC2)s1 (stereo not drawn) [Compound 182]
10,289,COc1cnc(C(F)F)cc1-c1cc(-c2nnc(C)o2)ccc1C(=O)Nc1nc(C)c(C#CC2CC2)s1 [Compound 164]
11,1.6,COc1cnc(C(F)F)cc1-c1ccncc1C(=O)Nc1nnc(C#CC2CC2)s1 [Compound 316]
12,3.1,COc1ccc(C(F)F)cc1-c1cn2ncnc2cc1C(=O)Nc1nnc(C#CC2CC2)s1 [Compound 328]
13,1.2,CNC(=O)Cn1cc(-c2cc(C(F)(F)F)cnc2OC)c(C(=O)Nc2nnc(C#CC3CC3)s2)cc1=O [Compound 89]
14,0.25,COc1cnc(C(F)F)cc1-c1cc(N2CCN3CCCC3C2=O)ncc1C(=O)Nc1nnc(C#CC2CC2)s1 (stereo not drawn) [Compound 415]
15,0.54,COc1cnc(C(F)F)cc1-c1cc(-c2cccc(C)n2)ncc1C(=O)Nc1nnc(C#CC2CC2)s1 [Compound 422]
16,< 0.25,COc1cnc(C(F)F)cc1-c1cc(-n2cnc(C)c(C)c2=O)ncc1C(=O)Nc1nnc(C#CC2CC2)s1 [Compound 451]
17,< 0.25,COc1cnc(C(F)F)cc1-c1cc(-n2ccc(C)c(F)c2=O)ncc1C(=O)Nc1nnc(C#CC2CC2)s1 [Compound 466]
18,1.6,COc1cnc(Cl)nc1-c1cnccc1C(=O)Nc1nnc(C#CC2CC2)s1 [Compound 68]
19,0.35,COc1cnc(C(F)F)cc1-c1cc(Cl)ncc1C(=O)Nc1nnc(C#CC2CC2)s1 [Compound 291]
20,4.1,COc1ccc(C(F)(F)F)nc1-c1cnccc1C(=O)Nc1nnc(C#CC2CC2)s1 [Compound 329]
21,1.1,COc1cnc(C(F)F)cc1-c1cc(-n2cc(N)c(C)cc2=O)ncc1C(=O)Nc1nnc(C#CC2CC2)s1 [Compound 454]
22,< 0.25,COc1cnc(C(F)F)cc1-c1cc(N2CCN(C(C)=O)CC2=O)ncc1C(=O)Nc1nnc(C#CC2CC2)s1 [Compound 357]
23,18,COc1cnc(C(F)F)cc1-c1cc(N2CCOC[C@H]2C)ncc1C(=O)Nc1nnc(C#CC2CC2)s1 [Compound 379]
24,< 0.25,COc1cnc(C(F)F)cc1-c1cc(N2CCCOC2=O)ncc1C(=O)Nc1nnc(C#CC2CC2)s1 [Compound 167]

row,IC50 [nM],Compound
1,0.69,COc1ccc(C(F)(F)F)cc1-c1cc(C2CCN(C)C2=O)ncc1C(=O)Nc1nnc(C#CC2CC2)s1 (stereo not drawn) [Compound 297]
2,4.4,COc1cnc(Cl)cc1-c1cc(CS(C)(=O)=O)ccc1C(=O)Nc1nnc(C#CC2CC2)s1 [Compound 310]
3,0.16,COc1cnc(C(F)F)cc1-c1cc(CC(=O)N2CC(C)(O)C2)ccc1C(=O)Nc1ncc(C#CC2CC2)s1 [Compound 205]
4,0.78,COc1cnc(C(F)F)cc1-c1cc(N(C)C(=O)C2(C)COC2)ccc1C(=O)Nc1nnc(C#CC2CC2)s1 [Compound 220]
5,1.5,COc1cnc(C(F)F)cc1-c1cc(-c2cnn(C3CCN(C)CC3)c2)ncc1C(=O)Nc1nnc(C#CC2CC2)s1 [Compound 399]
6,4.5,COc1cnc(C(F)F)cc1-c1cn2cc(C(=O)N(C)C)nc2cc1C(=O)Nc1nnc(C#CC2CC2)s1 [Compound 315]
7,0.38,C#Cc1cc(-c2cc(C(F)F)ncc2OC)c(C(=O)Nc2nnc(C#CC3CC3)s2)cn1 [Compound 269]
8,< 0.25,COc1cnc(C(F)F)cc1-c1cc(N2CCC(C)CC2=O)ncc1C(=O)Nc1nnc(C#CC2CC2)s1 (stereo not drawn) [Compound 141]
9,0.73,COc1cnc(C(F)F)cc1-c1cc(C#CC(C)(C)CO)ccc1C(=O)Nc1nnc(C#CC2CC2)s1 [Compound 240]
10,1.7,COc1cnc(C(F)F)cc1-c1cc(C(=O)N2CCOCC2)ccc1C(=O)Nc1nnc(C#CC2CC2)s1 [Compound 254]
11,< 0.25,COc1cnc(C(F)F)cc1-c1cc(CC#N)ncc1C(=O)Nc1nnc(C#Cc2ccc(Cl)cc2)s1 [Compound 178]
12,< 0.25,"COc1cnc(C(F)F)cc1-c1cc(N2CCOCC2=O)ccc1C(=O)Nc1nnc(C#CC2CC2)s1 [Compound 108, N-(5-(cyclopropylethynyl)-1,3,4-thiadiazol-2-yl)-2-(2-(difluoromethyl)-5-methoxypyridin-4-yl)-4-(3-oxomorpholino)benzamide]"
13,< 0.25,CN(C)C(=O)Cn1cc(-c2cc(C(F)F)ccc2Cl)c(C(=O)Nc2nnc(C#CC3CC3)s2)cc1=O [Compound 317]
14,0.56,COc1cnc(C(F)F)cc1-c1cc(C#CCN(C)C)ccc1C(=O)Nc1nnc(C#CC2CC2)s1 [Compound 236]
15,0.62,O=C(Nc1nnc(C#CC2CC23CC3)s1)c1cc2ncnn2cc1-c1cc(Cl)ncc1OC(F)F (stereo not drawn) [Compound 47]
16,0.75,COc1cnc(C(F)F)cc1-c1cc(OCCOC(F)F)ncc1C(=O)Nc1nnc(C#CC2CC2)s1 [Compound 181]
17,0.31,COc1cnc(C(F)F)cc1-c1cc(-c2cnc(C)o2)ncc1C(=O)Nc1nnc(C#CC2CC2)s1 [Compound 410]
18,< 0.25,COc1ccc(C(F)(F)F)cc1-c1cn(CC(=O)N(C)C)c(=O)cc1C(=O)Nc1nnc(C#CC2CC2)s1 [Compound 75]
19,1.3,COc1cnc(Cl)cc1-c1cc(C2(C(=O)O)CC2)ccc1C(=O)Nc1nnc(C#CC2CC2)s1 [Compound 250]
20,0.91,COc1cnc(C(F)(F)F)cc1-c1cn(C)c(=O)cc1C(=O)Nc1nnc(C#CC2CC23CC3)s1 (stereo not drawn) [Compound 58]
21,< 0.25,COc1cnc(C(F)F)cc1-c1cc(N2CCOCC2=O)ccc1C(=O)Nc1ncc(C#CC2CC2)s1 [Compound 213]
22,< 0.25,COc1cnc(C(F)F)cc1-c1cc(N2CCCCCC2=O)ncc1C(=O)Nc1nnc(C#CC2CC2)s1 [Compound 394]
23,5.6,COc1cnc(C(F)F)cc1-c1cc(C2=CCOCC2)ncc1C(=O)Nc1nnc(C#CC2CC2)s1 [Compound 284]

row,Compound,IC50 [nM]
1,COc1ccc(C(F)(F)F)cc1-c1cc(-c2ccn(C)n2)ncc1C(=O)Nc1nnc(C#CC2CC2)s1 [Compound 309],0.99
2,COc1ccc(C(F)(F)F)cc1-c1cc(-c2ccn(C)n2)ncc1C(=O)Nc1nnc(C#CC2CC2)s1 [Compound 308],0.42
3,COc1cnc(C(F)F)cc1-c1cc(C#Cc2cn[nH]c2)ncc1C(=O)Nc1nnc(C#CC2CC2)s1 [Compound 196],< 0.25
4,COc1cnc(C(F)F)cc1-c1cc(-c2nnc(C)s2)ccc1C(=O)Nc1nnc(C#CC2CC2)s1 [Compound 138],< 0.25
